According to patent US8933230B2, “Phosphorus-containing group-substituted quinoline, its preparation process, medical composition containing the compounds and application” (priority 2011, dated 2015):

Assays:
Test in all cases: KinomeScan kinase panel
Type in all cases: binding
[1] = molecular target: T1, ALK (Homo sapiens, UniProt Q9UM73)
T1 construct: purchased DiscoveRx Corporation (KinomeScan)
Procedure, shortened: (§1)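 Panel screen (KinomeScan, 442 kinases). One test concentration, 1000 nM; no dose-response.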

[2] = molecular target: T2, AMPK-alpha1 (Homo sapiens, UniProt Q13131)
T2 construct: purchased DiscoveRx Corporation (KinomeScan)
Procedure, shortened: as §1

[3] = molecular target: T3, BMX (Homo sapiens, UniProt P51813)
T3 construct: purchased DiscoveRx Corporation (KinomeScan)
Procedure, shortened: as §1

[4] = molecular target: T4, BRAF(V600E) (Homo sapiens, UniProt P15056, V600E)
T4 construct: purchased DiscoveRx Corporation (KinomeScan)
Procedure, shortened: as §1

[5] = molecular target: T5, BRK (Homo sapiens, UniProt Q13882)
T5 construct: purchased DiscoveRx Corporation (KinomeScan)
Procedure, shortened: as §1

[6] = molecular target: T6, CAMK2A (Homo sapiens, UniProt Q9UQM7)
T6 construct: purchased DiscoveRx Corporation (KinomeScan)
Procedure, shortened: as §1

[7] = molecular target: T7, CAMKK2 (Homo sapiens, UniProt Q96RR4)
T7 construct: purchased DiscoveRx Corporation (KinomeScan)
Procedure, shortened: as §1

[8] = molecular target: T8, CASK (Homo sapiens, UniProt O14936)
T8 construct: purchased DiscoveRx Corporation (KinomeScan)
Procedure, shortened: as §1

[9] = molecular target: T9, CLK1 (Homo sapiens, UniProt P49759)
T9 construct: purchased DiscoveRx Corporation (KinomeScan)
Procedure, shortened: as §1

[10] = molecular target: T10, CLK4 (Homo sapiens, UniProt Q9HAZ1)
T10 construct: purchased DiscoveRx Corporation (KinomeScan)
Procedure, shortened: as §1

[11] = molecular target: T11, CSNK1E (Homo sapiens, UniProt P49674)
T11 construct: purchased DiscoveRx Corporation (KinomeScan)
Procedure, shortened: as §1

[12] = molecular target: T12, DCAMKL3 (Homo sapiens, UniProt Q9C098)
T12 construct: purchased DiscoveRx Corporation (KinomeScan)
Procedure, shortened: as §1

[13] = molecular target: T13, DRAK2 (Homo sapiens, UniProt O94768)
T13 construct: purchased DiscoveRx Corporation (KinomeScan)
Procedure, shortened: as §1

[14] = molecular target: T14, EIF2AK1 (Homo sapiens, UniProt Q9BQI3)
T14 construct: purchased DiscoveRx Corporation (KinomeScan)
Procedure, shortened: as §1

[15] = molecular target: T15, EPHA7 (Homo sapiens, UniProt Q15375)
T15 construct: purchased DiscoveRx Corporation (KinomeScan)
Procedure, shortened: as §1

[16] = molecular target: T16, FGFR (Homo sapiens, UniProt P21802)
T16 construct: purchased DiscoveRx Corporation (KinomeScan)
Procedure, shortened: as §1

[17] = molecular target: T17, HIPK1 (Homo sapiens, UniProt Q86Z02)
T17 construct: purchased DiscoveRx Corporation (KinomeScan)
Procedure, shortened: as §1

[18] = molecular target: T18, JAK1(JH2domain-pseudokinase) (Homo sapiens, UniProt P23458)
T18 construct: JAK1(JH2domain-; purchased DiscoveRx Corporation (KinomeScan)
Procedure, shortened: as §1

[19] = molecular target: T19, KIT (Homo sapiens, UniProt P10721)
T19 construct: purchased DiscoveRx Corporation (KinomeScan)
Procedure, shortened: as §1

[20] = molecular target: T20, MKNK2 (Homo sapiens, UniProt Q9HBH9)
T20 construct: purchased DiscoveRx Corporation (KinomeScan)
Procedure, shortened: as §1

[21] = molecular target: T21, MLK1 (Homo sapiens, UniProt P80192)
T21 construct: purchased DiscoveRx Corporation (KinomeScan)
Procedure, shortened: as §1

[22] = molecular target: T22, NLK (Homo sapiens, UniProt Q9UBE8)
T22 construct: purchased DiscoveRx Corporation (KinomeScan panel)
Procedure, shortened: as §1

[23] = molecular target: T23, PHKG2 (Homo sapiens, UniProt P15735)
T23 construct: purchased DiscoveRx Corporation (KinomeScan)
Procedure, shortened: as §1

[24] = molecular target: T24, PIK3CA(C420R) (Homo sapiens, UniProt P42336, C420R)
T24 construct: purchased DiscoveRx Corporation (KinomeScan)
Procedure, shortened: as §1

[25] = molecular target: T25, PIK3CG (Homo sapiens, UniProt P48736)
T25 construct: purchased DiscoveRx Corporation (KinomeScan)
Procedure, shortened: as §1

[26] = molecular target: T26, PIP5K1A (Homo sapiens, UniProt Q99755)
T26 construct: purchased DiscoveRx Corporation (KinomeScan)
Procedure, shortened: as §1

[27] = molecular target: T27, PIP5K2B (Homo sapiens, UniProt P78356)
T27 construct: purchased DiscoveRx Corporation (KinomeScan)
Procedure, shortened: as §1

[28] = molecular target: T28, PKA7 (Homo sapiens, UniProt Q9P286)
T28 construct: purchased DiscoveRx Corporation (KinomeScan panel)
Procedure, shortened: as §1

[29] = molecular target: T29, PRKG1 (Homo sapiens, UniProt Q13976)
T29 construct: purchased DiscoveRx Corporation (KinomeScan)
Procedure, shortened: as §1

[30] = molecular target: T30, RPS6KA5(kin.Dom.1-N-termimal) (Homo sapiens, UniProt O75582)
T30 construct: kin.Dom.1; purchased DiscoveRx Corporation
Procedure, shortened: as §1

[31] = molecular target: T31, SIK (Homo sapiens, UniProt P57059)
T31 construct: purchased DiscoveRx Corporation (KinomeScan)
Procedure, shortened: as §1

[32] = molecular target: T32, TAOK3 (Homo sapiens, UniProt Q9H2K8)
T32 construct: purchased DiscoveRx Corporation (KinomeScan)
Procedure, shortened: as §1

[33] = molecular target: T33, TNIK (Homo sapiens, UniProt Q9UKE5)
T33 construct: purchased DiscoveRx Corporation (KinomeScan)
Procedure, shortened: as §1

[34] = molecular target: T34, TSSK1B (Homo sapiens, UniProt Q9BXA7)
T34 construct: purchased DiscoveRx Corporation (KinomeScan)
Procedure, shortened: as §1

[35] = molecular target: T35, TYRO3 (Homo sapiens, UniProt Q06418)
T35 construct: purchased DiscoveRx Corporation (KinomeScan service)
Procedure, shortened: as §1

[36] = molecular target: T36, ULK1 (Homo sapiens, UniProt O75385)
T36 construct: purchased DiscoveRx Corporation (KinomeScan service)
Procedure, shortened: as §1

T15 sequence (Q15375 28-998): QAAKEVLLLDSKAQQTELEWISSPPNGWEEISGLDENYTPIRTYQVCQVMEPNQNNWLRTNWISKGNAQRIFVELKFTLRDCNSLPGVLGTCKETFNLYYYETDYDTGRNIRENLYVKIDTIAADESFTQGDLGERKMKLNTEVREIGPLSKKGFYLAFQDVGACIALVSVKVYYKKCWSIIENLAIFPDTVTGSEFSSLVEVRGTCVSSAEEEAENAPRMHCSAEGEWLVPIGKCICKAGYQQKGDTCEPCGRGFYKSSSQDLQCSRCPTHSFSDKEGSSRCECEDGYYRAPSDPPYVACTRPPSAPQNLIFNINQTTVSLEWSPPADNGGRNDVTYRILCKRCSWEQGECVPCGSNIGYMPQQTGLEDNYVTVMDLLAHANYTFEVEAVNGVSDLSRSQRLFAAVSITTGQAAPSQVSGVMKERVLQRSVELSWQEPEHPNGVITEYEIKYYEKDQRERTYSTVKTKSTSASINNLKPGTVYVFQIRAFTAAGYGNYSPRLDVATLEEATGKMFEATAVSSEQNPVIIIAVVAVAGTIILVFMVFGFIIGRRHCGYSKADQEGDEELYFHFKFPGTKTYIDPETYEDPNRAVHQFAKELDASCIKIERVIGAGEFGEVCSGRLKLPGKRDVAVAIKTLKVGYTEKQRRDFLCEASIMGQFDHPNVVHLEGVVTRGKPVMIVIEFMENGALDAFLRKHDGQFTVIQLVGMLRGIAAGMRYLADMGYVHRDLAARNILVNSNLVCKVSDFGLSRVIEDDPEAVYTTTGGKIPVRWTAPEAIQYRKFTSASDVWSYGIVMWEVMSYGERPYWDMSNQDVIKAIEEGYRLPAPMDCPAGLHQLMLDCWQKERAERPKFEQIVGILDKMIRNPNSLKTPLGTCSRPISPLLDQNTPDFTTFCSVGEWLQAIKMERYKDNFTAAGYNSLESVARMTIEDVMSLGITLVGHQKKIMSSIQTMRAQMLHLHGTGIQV
T28 sequence (Q9P286 whole entry): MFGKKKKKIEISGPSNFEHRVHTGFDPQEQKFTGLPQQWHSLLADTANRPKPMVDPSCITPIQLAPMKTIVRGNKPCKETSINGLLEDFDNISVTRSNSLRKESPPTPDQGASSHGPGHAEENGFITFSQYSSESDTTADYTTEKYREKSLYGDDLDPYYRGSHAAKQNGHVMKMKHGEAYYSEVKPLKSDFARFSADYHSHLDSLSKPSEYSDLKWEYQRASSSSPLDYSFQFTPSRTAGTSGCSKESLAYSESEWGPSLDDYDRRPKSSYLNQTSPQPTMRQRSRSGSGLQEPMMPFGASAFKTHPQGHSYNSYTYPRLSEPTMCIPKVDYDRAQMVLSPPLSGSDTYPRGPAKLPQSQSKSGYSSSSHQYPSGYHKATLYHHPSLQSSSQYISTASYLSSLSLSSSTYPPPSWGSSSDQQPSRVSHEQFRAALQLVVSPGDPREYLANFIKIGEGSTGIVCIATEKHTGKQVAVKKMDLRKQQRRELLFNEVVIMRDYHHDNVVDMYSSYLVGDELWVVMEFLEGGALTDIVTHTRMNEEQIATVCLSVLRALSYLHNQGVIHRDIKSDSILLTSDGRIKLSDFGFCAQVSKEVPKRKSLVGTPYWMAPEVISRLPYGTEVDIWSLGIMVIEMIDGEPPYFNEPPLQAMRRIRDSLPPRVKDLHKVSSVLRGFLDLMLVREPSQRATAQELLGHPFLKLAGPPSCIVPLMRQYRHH
T3 sequence (P51813 whole entry): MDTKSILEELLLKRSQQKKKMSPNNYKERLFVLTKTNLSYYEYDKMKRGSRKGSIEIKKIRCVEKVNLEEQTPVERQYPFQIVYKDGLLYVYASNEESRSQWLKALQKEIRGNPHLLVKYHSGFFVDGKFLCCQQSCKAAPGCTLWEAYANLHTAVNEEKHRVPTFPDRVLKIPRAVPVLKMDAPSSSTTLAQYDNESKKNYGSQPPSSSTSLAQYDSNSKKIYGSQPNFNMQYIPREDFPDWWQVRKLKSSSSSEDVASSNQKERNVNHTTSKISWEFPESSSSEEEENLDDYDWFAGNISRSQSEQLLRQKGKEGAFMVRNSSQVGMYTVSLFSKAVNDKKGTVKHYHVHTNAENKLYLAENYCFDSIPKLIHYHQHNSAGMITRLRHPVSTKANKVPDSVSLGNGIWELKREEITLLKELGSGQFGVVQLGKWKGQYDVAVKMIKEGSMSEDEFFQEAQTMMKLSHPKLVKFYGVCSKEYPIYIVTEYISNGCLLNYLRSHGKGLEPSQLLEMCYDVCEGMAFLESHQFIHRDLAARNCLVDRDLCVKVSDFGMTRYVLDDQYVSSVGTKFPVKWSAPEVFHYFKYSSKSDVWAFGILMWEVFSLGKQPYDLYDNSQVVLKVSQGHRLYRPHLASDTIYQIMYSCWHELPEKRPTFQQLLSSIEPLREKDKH
T10 sequence (Q9HAZ1 whole entry): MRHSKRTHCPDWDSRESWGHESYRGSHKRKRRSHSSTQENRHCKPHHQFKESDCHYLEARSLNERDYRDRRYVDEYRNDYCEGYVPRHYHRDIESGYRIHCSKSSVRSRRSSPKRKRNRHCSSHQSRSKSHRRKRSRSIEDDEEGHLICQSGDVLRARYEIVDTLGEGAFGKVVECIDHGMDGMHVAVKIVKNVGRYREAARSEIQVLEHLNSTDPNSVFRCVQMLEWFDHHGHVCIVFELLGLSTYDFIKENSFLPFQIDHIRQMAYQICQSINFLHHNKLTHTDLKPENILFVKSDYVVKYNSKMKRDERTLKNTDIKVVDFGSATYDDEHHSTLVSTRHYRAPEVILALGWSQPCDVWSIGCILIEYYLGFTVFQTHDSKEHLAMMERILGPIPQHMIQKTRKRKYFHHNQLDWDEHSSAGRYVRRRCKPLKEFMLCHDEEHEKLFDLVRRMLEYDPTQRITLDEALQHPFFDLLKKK
T8 sequence (O14936 whole entry): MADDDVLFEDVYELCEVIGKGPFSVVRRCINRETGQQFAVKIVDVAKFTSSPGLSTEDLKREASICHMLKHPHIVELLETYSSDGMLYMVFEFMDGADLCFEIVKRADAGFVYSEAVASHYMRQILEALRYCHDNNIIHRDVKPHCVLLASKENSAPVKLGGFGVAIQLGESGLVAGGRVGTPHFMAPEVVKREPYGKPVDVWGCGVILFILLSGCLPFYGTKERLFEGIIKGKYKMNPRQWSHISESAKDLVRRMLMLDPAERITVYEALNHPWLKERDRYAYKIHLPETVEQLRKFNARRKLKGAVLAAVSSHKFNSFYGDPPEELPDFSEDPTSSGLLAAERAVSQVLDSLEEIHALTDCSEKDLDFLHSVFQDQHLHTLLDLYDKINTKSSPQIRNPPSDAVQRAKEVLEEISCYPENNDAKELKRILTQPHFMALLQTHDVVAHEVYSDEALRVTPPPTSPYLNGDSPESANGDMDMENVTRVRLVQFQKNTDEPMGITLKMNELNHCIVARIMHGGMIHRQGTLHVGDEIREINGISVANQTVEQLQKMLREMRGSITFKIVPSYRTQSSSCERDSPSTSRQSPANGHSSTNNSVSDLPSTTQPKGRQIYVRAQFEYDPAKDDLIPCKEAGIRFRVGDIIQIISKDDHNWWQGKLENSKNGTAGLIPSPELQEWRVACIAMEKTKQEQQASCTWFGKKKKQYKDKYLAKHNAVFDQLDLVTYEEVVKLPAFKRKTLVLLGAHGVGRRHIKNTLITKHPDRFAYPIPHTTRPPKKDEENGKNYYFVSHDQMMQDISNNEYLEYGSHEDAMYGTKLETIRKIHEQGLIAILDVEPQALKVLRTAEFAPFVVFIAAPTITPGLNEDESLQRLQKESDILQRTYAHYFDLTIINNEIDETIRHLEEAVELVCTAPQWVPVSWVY
T6 sequence (Q9UQM7 whole entry): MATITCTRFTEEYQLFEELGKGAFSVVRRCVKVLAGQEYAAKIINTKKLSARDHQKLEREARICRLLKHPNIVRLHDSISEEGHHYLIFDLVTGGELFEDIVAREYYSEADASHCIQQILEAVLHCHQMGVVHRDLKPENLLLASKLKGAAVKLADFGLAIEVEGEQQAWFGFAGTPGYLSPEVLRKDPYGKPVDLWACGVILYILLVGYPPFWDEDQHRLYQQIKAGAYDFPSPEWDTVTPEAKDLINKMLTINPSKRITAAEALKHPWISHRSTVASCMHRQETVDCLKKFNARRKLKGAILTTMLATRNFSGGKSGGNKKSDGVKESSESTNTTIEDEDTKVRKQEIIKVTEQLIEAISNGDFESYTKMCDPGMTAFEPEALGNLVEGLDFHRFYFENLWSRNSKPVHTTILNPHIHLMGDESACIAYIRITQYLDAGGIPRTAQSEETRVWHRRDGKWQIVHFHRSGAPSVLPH
T16 sequence (P21802 458-770 limits assumed): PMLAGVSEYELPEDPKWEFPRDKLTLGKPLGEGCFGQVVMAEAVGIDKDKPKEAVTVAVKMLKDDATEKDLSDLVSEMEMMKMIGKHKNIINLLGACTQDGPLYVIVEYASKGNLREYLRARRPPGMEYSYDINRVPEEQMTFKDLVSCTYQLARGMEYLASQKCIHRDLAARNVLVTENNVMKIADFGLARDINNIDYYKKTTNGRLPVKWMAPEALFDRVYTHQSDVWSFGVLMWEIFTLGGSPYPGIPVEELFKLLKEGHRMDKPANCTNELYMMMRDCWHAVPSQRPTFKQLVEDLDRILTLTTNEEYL
T23 sequence (P15735 whole entry): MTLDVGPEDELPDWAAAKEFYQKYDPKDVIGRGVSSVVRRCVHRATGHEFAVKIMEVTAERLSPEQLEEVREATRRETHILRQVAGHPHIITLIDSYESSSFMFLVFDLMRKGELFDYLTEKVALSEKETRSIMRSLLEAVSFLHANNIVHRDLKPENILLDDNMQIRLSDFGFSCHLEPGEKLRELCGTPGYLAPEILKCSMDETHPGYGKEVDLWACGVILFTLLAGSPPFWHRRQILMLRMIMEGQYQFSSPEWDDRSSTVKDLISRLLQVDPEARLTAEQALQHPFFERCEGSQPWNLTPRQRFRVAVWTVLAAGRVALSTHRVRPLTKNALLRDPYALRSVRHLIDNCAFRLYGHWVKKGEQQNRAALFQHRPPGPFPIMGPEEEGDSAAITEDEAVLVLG

## CCOP(=O)(CN1CCC(COc2cc3nccc(Oc4ccc(NC(=O)C5(C(=O)Nc6ccc(F)cc6)CC5)cc4F)c3cc2OC)CC1)OCC [Example 10, N1-[4-[[7-[[1-(diethoxyphosphorylmethyl)-4-piperidinyl]methoxyl]-6-methoxyl-4-quinolyl]oxyl]-3-fluorophenyl]-N1′-(4-fluorophenyl)cyclopropane-1,1-dicarboxamide]
[1]
  % Ctrl@1000 nM: 15 % Ctrl
[2]
  % Ctrl@1000 nM: 100 % Ctrl
[3]
  % Ctrl@1000 nM: 92 % Ctrl
[4]
  % Ctrl@1000 nM: 100 % Ctrl
[5]
  % Ctrl@1000 nM: 3.0 % Ctrl
[6]
  % Ctrl@1000 nM: 100 % Ctrl
[7]
  % Ctrl@1000 nM: 81 % Ctrl
[8]
  % Ctrl@1000 nM: 100 % Ctrl
[9]
  % Ctrl@1000 nM: 89 % Ctrl
[10]
  % Ctrl@1000 nM: 46 % Ctrl
[11]
  % Ctrl@1000 nM: 100 % Ctrl
[12]
  % Ctrl@1000 nM: 100 % Ctrl
[13]
  % Ctrl@1000 nM: 100 % Ctrl
[14]
  % Ctrl@1000 nM: 100 % Ctrl
[15]
  % Ctrl@1000 nM: 0.8 % Ctrl
[16]
  % Ctrl@1000 nM: 76 % Ctrl
[17]
  % Ctrl@1000 nM: 92 % Ctrl
[18]
  % Ctrl@1000 nM: 100 % Ctrl
[19]
  % Ctrl@1000 nM: 0.2 % Ctrl
[20]
  % Ctrl@1000 nM: 0.05 % Ctrl
[21]
  % Ctrl@1000 nM: 83 % Ctrl
[22]
  % Ctrl@1000 nM: 100 % Ctrl
[23]
  % Ctrl@1000 nM: 96 % Ctrl
[24]
  % Ctrl@1000 nM: 100 % Ctrl
[25]
  % Ctrl@1000 nM: 100 % Ctrl
[26]
  % Ctrl@1000 nM: 100 % Ctrl
[27]
  % Ctrl@1000 nM: 100 % Ctrl
[28]
  % Ctrl@1000 nM: 100 % Ctrl
[29]
  % Ctrl@1000 nM: 100 % Ctrl
[30]
  % Ctrl@1000 nM: 100 % Ctrl
[31]
  % Ctrl@1000 nM: 60 % Ctrl
[32]
  % Ctrl@1000 nM: 100 % Ctrl
[33]
  % Ctrl@1000 nM: 70 % Ctrl
[34]
  % Ctrl@1000 nM: 100 % Ctrl
[35]
  % Ctrl@1000 nM: 41 % Ctrl
[36]
  % Ctrl@1000 nM: 100 % Ctrl
